From patent US7018839B2 (priority 1996, dated 2006) come the findings set out here.

No end group written: not given here.

Series [1] deals with hippocampal cells in organotypic cultures. Put plainly: Organotypic hippocampal tissue culture toxicity (trypan blue, LDH, AChE immunocytochemistry). The class given is cell-based, rats. Particulars: for cellular damage in hippocampal sections compared to control samples: semi-acute application for 1 hour, AChE-peptide and/or NMDA. The method, then:
The organotype tissue culture technique requires postnatal (day 5–7) rats given terminal anaesthesia followed by decapitation. Sections of hippocampus, 400 μm thick, are prepared and then plated on a plasma/thrombin clot. A serum-based media is added to these cultures, which can then be maintained at constant temperature (35° C.) for up to 21 days. After each study, cultures are stained with trypan blue to assess cell viability, in addition, after every removal of serum media, cultures are assayed for lactate dehydrogenase (LDH—a soluble cytoplasmic enzyme used as an index of cellular damage).
Following chronic studies (cultures are maintained for 21 days and treated with AChE-peptide and/or NMDA every 3–4 days), cultured cells are immunocytochemically stained for acetylcholinesterase in order to assess what action, if any, the AChE-peptide has on cell number.

The test system of series [2] is neurons in the substantia nigra.
For the next series, the system named is anti-peptide antibody. Put plainly: Competition assay for binding of antibody to immobilised AChE-peptide. More on the design: species or system Rabbits. Particulars: competitor preincubated with antibody in solution; APP and BuChE peptide at even excessive doses. On the procedure: In order to be sure that the antibody recognition of peptides occurs without the possible distortion due to the binding of the peptide to a charged plastic surface, an assay was used in which the critical interaction is studied in solution. […] An aliquot of the antibody was preincubated with potential competitors for binding to the AChE-peptide before presenting the resulting mixture to the peptide bound to the well.

The next series has as its system substantia nigra. As to the kind of experiment: Behavioural studies: infusion into one substantia nigra, amphetamine challenge, circling. Particulars: infused unilaterally into the substantia nigra. The class given is in vivo, rats. On the procedure:
In these experiments, rats were chronically implanted with a cannula in one substantia nigra and left to recover. After a period of about 3 days, they were infused with either a saline control solution, or a solution containing the 14-mer AChE peptide of the invention at a dose of 1 μl of 10^−5M. After a single infusion, they were challenged daily with a systemic application of amphetamine for the subsequent 10 days.

For the compound AEFHRWSSYMVHWK [AChE peptide], the “LDH assays (biochemical studies)” value in series [1] (chronic cultures, 21 days, treated every 3–4 days) is reported as “support the proposed toxic action”. The toxicity detected histochemically in series [1] (culture period of three weeks) is given as “Toxic effects are also detectable”. Besides, in series [1] (organotypic cultures), the “interaction with excito-toxic effects of NMDA” value is recorded as “synergistic”, the “time of application until effect can be seen” value is on record as “one” and the “toxic effects on hippocampal cells” value is listed as “direct toxic effects”. For the same compound, the “cellular damage in hippocampal sections compared to control samples” value in series [1] is recorded as “extensive cellular damage”. For the same compound, in series [2], the “state of the cell on application of NMDA after peptide treatment” value is “severe metabolic stress of the cell”.

As to AGFHRWNNYMMDWK [BuChE peptide], in the series with anti-peptide antibody, the “competition for the binding of antibody to immobilised AChE-peptide” value is listed as “could not compete”. In series [2], the “calcium channel opening activity” value was “inactive”, the “effect of the fragment alone on calcium potentials” value is reported as “without corresponding effect” and the “effect on the activity of the AChE fragment” value was “inactive”.

For acetylcholinesterase [AChE], the “circling behaviour (activity of the nigrostriatal pathway)” value in the series on substantia nigra was “long-term increase in circling behaviour”.

For the compound `CN[C@H](CC(=O)O)C(=O)O` [NMDA, N-methyl-D-aspartate, reference compound], the “cellular damage in hippocampal sections compared to control samples” value in series [1] was “extensive cellular damage”.

With recombinant AChE, the “competition for the binding of antibody to immobilised AChE-peptide” value with anti-peptide antibody is recorded as “effective competitor”.
